Test results: patent US20240417729A1, “THERAPEUTIC TREATMENT FOR FRAGILE X-ASSOCIATED DISORDER” (University of Massachusetts, priority 2021, published 2024)
“And” between values parts separate entries of the source, which are not always exact repeats. Equal values may be shown once. “Also recorded” adds a separate entry of the source. Read-outs that look alike come from different tables or passages of the source.

Assays:
FMR1-217 RNA [1] = assay: RT-qPCR of FMR1-217 and full-length FMR1 in fully methylated FXS1 LCL (GM07365) treated with 5-AzadC and/or ASOs; type: cell-based, human; details: 5-AzadC (5-AzaC) 1 μM alone, 7 days, vs DMSO
Experimental: For each cell culture, 30×10^5 cells/mL were added in a final volume of 20 mL medium (RPMI 1640 medium (Sigma-Aldrich), supplemented with 15% FBS and 2.5% L-glutamine at 37° C. with 5% CO2) per T25 flask. 5-Aza-2′-deoxycytidine (5-AzaC) (Sigma-Aldrich, A3656) was added to the cell cultures (final concentration 1 μM) for 7 consecutive days. A 2 mM stock of 5-AzaC was made in DMSO. For each cell line, two independent treatments were performed (n=2). For the no treatment controls for each cell line, DMSO was added to the flasks. For samples with both 5-AzaC and ASO treatment, 80 nM ASOs or vehicle were added on Day 1 and either 5-AzaC or DMSO was added each day from Day 2 up to Day 9 at a final concentration of 1 μM. On Day 9 the cells were collected in 1×Phosphate buffered saline to proceed with RNA extraction or Western blotting.
(§1) One microgram (μg) of total RNA was primed with oligo(dT)20 to generate cDNA with a QuantiTect cDNA synthesis kit (Qiagen, #205311) using random hexamers (Table 3). qPCR was performed using the iTaq™ Universal SYBR® Green Supermix (BIO-RAD #1725122) on a QuantStudio 3 qPCR machine in duplicate.
(§2) Antisense oligonucleotides (ASOs) were dissolved in ultrapure distilled water to a final concentration of 10 μM. Before use, the ASOs were heated to 55° C. for 15 minutes and cooled at room temperature. ASOs were added, individually or in combinations, to LCL cell lines at a final concentration of 80 nM or 160 nM using Lipofectamine RNAIMAX® Transfection Reagent (Thermo Fisher Scientific, 13778030) and incubated at 37° C. with 5% CO2 for 16 hours in reduced serum medium. RPMI 1640 medium (Sigma-Aldrich), supplemented with 15% fetal bovine serum (FBS) was added for a total of 72 hours. The cells were collected after 72 hours of ASO treatment for RNA and protein extraction.
For each cell culture, 30×10^5 cells/mL were added to a final volume of 20 mL medium (RPMI 1640 medium (Sigma-Aldrich) supplemented with 15% fetal bovine serum (FBS) and 2.5% L-glutamine at 37° C. with 5% CO2) per T25 flask. 5-Aza-2′-deoxycytidine (5-AzadC) (Sigma-Aldrich, A3656) was added to the cell cultures (final concentration 1 μM) for 7 consecutive days. A 2 mM stock of 5-AzadC was made in DMSO. For each cell line, two independent treatments were performed (n=2). For the no treatment controls for each cell line, DMSO was added to the flasks. For samples with both 5-AzadC and ASO treatment, 80 nM or 160 nM ASOs or vehicle were added on Day 1 and either 5-AzadC or DMSO was added each day from Day 2 up to Day 9 at a final concentration of 1 μM. On Day 9 the cells were collected in 1× phosphate buffered saline to proceed with RNA extraction or Western blotting. […]

FMRP [2] = assay: Western blot of FMRP relative to GAPDH in FXS1 LCL (GM07365); type: cell-based, human; details: 5-AzadC 1 μM alone, 7 days
Experimental: For each cell culture, 30×10^5 cells/mL were added in a final volume of 20 mL medium (RPMI 1640 medium (Sigma-Aldrich), supplemented with 15% FBS and 2.5% L-glutamine at 37° C. with 5% CO2) per T25 flask. 5-Aza-2′-deoxycytidine (5-AzaC) (Sigma-Aldrich, A3656) was added to the cell cultures (final concentration 1 μM) for 7 consecutive days. A 2 mM stock of 5-AzaC was made in DMSO. For each cell line, two independent treatments were performed (n=2). For the no treatment controls for each cell line, DMSO was added to the flasks. […]
Cells were homogenized at 4° C. in RIPA buffer with incubation on ice for 10 minutes and dissociation by pipetting. […] Protein concentration was determined by BCA reagent. Proteins (10 μg) were diluted in SDS-bromophenol blue reducing buffer with 40 mM DTT and analyzed using western blotting on a 10% SDS-PAGE gel with the following antibodies: FMRP (Abcam, 1:2000) and GAPDH (Cell signaling, 1:2000) diluted in 1×TBST with 5% non-fat milk. […]
Cells were homogenized at 4° C. in RIPA buffer, with incubation on ice for 10 minutes and dissociation by pipetting. […] Protein concentration was determined using BCA reagent. […]
Cells were homogenized at 4° C. in radioimmunoprecipitation assay (RIPA) lysis buffer with incubation on ice for 10 minutes and dissociation by pipetting. […] Protein concentration was determined by BCA reagent.

FMR1-217 RNA [3] = assay: RT-qPCR of FMR1-217 and full-length FMR1 in partially methylated FXS2 LCL (GM06897); type: cell-based, human; details: 5-AzadC 1 μM, 7 days, vs DMSO
Experimental: as §1, §2
For each cell culture, 30×10^5 cells/mL were added to a final volume of 20 mL medium (RPMI 1640 medium (Sigma-Aldrich) supplemented with 15% fetal bovine serum (FBS) and 2.5% L-glutamine at 37° C. with 5% CO2) per T25 flask. 5-Aza-2′-deoxycytidine (5-AzadC) (Sigma-Aldrich, A3656) was added to the cell cultures (final concentration 1 μM) for 7 consecutive days. A 2 mM stock of 5-AzadC was made in DMSO. […]

FMRP [4] = assay: Western blot of FMRP relative to GAPDH in FXS2 LCL (GM06897); type: cell-based, human; details: 5-AzadC 1 μM, 7 days
Experimental: as §2, with “The cells were collected after 72 hours of ASO treatment for RNA and protein extraction.” left out
Cells were homogenized at 4° C. in RIPA buffer, with incubation on ice for 10 minutes and dissociation by pipetting. The extract was centrifuged at 13,200 rpm for 10 minutes at 4° C., and the supernatant collected. Protein concentration was determined using BCA reagent. Proteins (10 μg) were diluted in SDS-bromophenol blue reducing buffer with 40 mM DTT and analyzed using western blotting with the following antibodies: FMRP (Millipore, mAb2160, 1: 1,000), FMRP (Abcam, ab17722, 1:1,000) and GAPDH (14C10, Cell Signaling Technology, mAb 2118, 1:2,000), diluted in 1×TBST with 5% non-fat milk. […]
Cells were homogenized at 4° C. in radioimmunoprecipitation assay (RIPA) lysis buffer with incubation on ice for 10 minutes and dissociation by pipetting. […] Protein concentration was determined by BCA reagent. […]

FMRP [5] = assay: Western blot of FMRP in FXS dermal fibroblasts (GM05131B); type: cell-based, human; details: 5-AzadC alone
Experimental: Cells were homogenized at 4° C. in RIPA buffer, with incubation on ice for 10 minutes and dissociation by pipetting. The extract was centrifuged at 13,200 rpm for 10 minutes at 4° C., and the supernatant collected. Protein concentration was determined using BCA reagent. Proteins (10 μg) were diluted in SDS-bromophenol blue reducing buffer with 40 mM DTT and analyzed using western blotting with the following antibodies: FMRP (Millipore, mAb2160, 1: 1,000), FMRP (Abcam, ab17722, 1:1,000) and GAPDH (14C10, Cell Signaling Technology, mAb 2118, 1:2,000), diluted in 1×TBST with 5% non-fat milk. Membranes were washed three times for 10 minutes with 1×TBST and incubated with anti-rabbit or anti-mouse secondary antibodies (Jackson, 1:10,000) at room temperature for 1 hour. Membranes were washed three times for 10 minutes with 1×TBST, developed with ECL-Plus (Piece), and scanned with GE Amersham Imager.
Cells were homogenized at 4° C. in radioimmunoprecipitation assay (RIPA) lysis buffer with incubation on ice for 10 minutes and dissociation by pipetting. The extract was centrifuged at 13,200 rpm for 10 minutes at 4° C., and the supernatant was collected. Protein concentration was determined by BCA reagent.

FMR1-217 RNA [6] = assay: RT-qPCR of FMR1-217 and FMR1 in FXS lung fibroblasts (GM07072) treated with 5-AzadC and ASOs 713/714; type: cell-based, human; details: fully methylated FMR1, 5-AzadC in the absence of ASOs
Experimental: FIG. 15D Lung fibroblasts derived from a FXS individual (GM07072, Coriell Institute) were cultured with 5-AzadC for 8 days and then treated with ASOs 713/714 (100 nM each) for 72 hours prior to RNA and protein extraction. RT-qPCR analysis of FMR1-217, FMR1, and GAPDH RNAs in lung fibroblasts treated with DMSO, ASOs 713/714, 5-AzadC, or the ASOs 713/714 plus 5-AzadC. The amounts of FMR1-217 and FMR1 were made relative to GAPDH. (*p<0.05, **p<0.01, ***p<0.001, one way ANOVA with multiple comparisons test).
FIG. 21D Lung fibroblasts derived from an FXS individual (GM07072, Coriell Institute) were cultured with 5-AzadC for 8 days and then treated with ASOs 713/714 (100 nM each) for 72 hours prior to RNA and protein extraction. RT-qPCR analysis of FMR1-217, FMR1, and GAPDH RNAs in lung fibroblasts treated with DMSO, ASOs 713/714, 5-AzadC, or the ASOs 713/714 plus 5-AzadC. The amounts of FMR1-217 and FMR1 were made relative to GAPDH (*P<0.05, **P<0.01, ***P<0.001, one-way ANOVA with multiple comparisons test).

[7] = test system: FMR1 transcripts (total, FMR1-205, FMR1-217); details: FXS iPSC-derived NSCs, reanalyzed from RNA-seq data of Vershkov et al., cited from earlier work
FMR1 RNA = details: FXS LCLs; 36 days of 5-AzadC; previous study; cited from earlier work

## Nc1ncn([C@H]2C[C@H](O)[C@@H](CO)O2)c(=O)n1 [5-AzadC, 5-Aza-2′-deoxycytidine]
FMR1-217 RNA [1]
  FMR1-217 (iso12) RNA level: synthesis of both FMR1 and FMR1-217 RNAs; also recorded: increased FMR1-217 RNA levels; also recorded: significant increases; also recorded: expected increase; also recorded: resulted in the expression of FMR1-217 and full-length FMR1
  full-length FMR1 (iso1) RNA level: synthesis of both FMR1 and FMR1-217 RNAs; also recorded: significant increases; also recorded: expected increase; also recorded: resulted in the expression of FMR1-217 and full-length FMR1
FMR1-217 RNA [1]; listed as 5-AzaC
  FMR1-217 (iso12) RNA level: increase in FMR1 iso12
  full-length FMR1 (iso1) RNA level: increase in FMR1 iso1
FMRP [2]
  FMRP level (western blot, relative to GAPDH): little or no FMRP; also recorded: increased FMR1-217 RNA levels but not FMRP; also recorded: In neither cell line did 5-AzadC treatment induce a significant increase in FMRP; also recorded: did not affect FMRP levels; also recorded: unaffected; also recorded: little FMRP; also recorded: modest increase; also recorded: modestly affected
FMR1-217 RNA [3]
  full-length FMR1 RNA level: increase of only full-length FMR1 RNA
FMRP [4]
  FMRP level (western blot, relative to GAPDH): In neither cell line did 5-AzadC treatment induce a significant increase in FMRP
FMRP [5]
  FMRP level (western blot): no effect
FMR1-217 RNA [6]
  FMR1-217 RNA level: increased
  FMR1 RNA level: increased
[7]; biologic duplicate
  FMR1 (total) reads: 9.9 TPM and 6.1 TPM
  FMR1-217 reads: 6.9 TPM and 3.9 TPM
[7]
  FMR1-217 RNA-seq reads (in words): clearly evident; also recorded: strong FMR1-217 expression; also recorded: reads corresponding to FMR1-217; also recorded: detected only in the 5-AzadC-treated samples
  total FMR1 and FMR1-205 expression (in words): strong total FMR1 and FMR1-205 expression; also recorded: expressed
[7]; listed as 5-azadC
  FMR1-217 RNA-seq reads (in words): detected only in the 5-azadC-treated samples
FMR1 RNA
  FMRP level compared to that in TD cells: even lower level
  restoration of FMR1 RNA: up to 40%
